{"source": "patent US20210371351A1", "about": "“MIXTURES COMPRISING AT LEAST TWO DIFFERENT NITRIFICATION INHIBITORS SELECTED FROM 2-(3,4-DIMETHYL-1H-PYRAZOL-1-YL)SUCCINIC ACID (DMPSA), 3,4-DIMETHYL PYRAZOLIUM GLYCOLATE (DMPG) AND OTHER COMPOUNDS” (BASF SE, priority 2017, published 2021)", "test_system": "nitrification", "test": "Example 3: soil column trial (soil Limburgerhof) with ammonium sulfate, DMPP, DMPSA or DMPP+DMPSA; leaching at 5° C., incubation 10 d or 20 d at 15° C.; NH4-N/NO3-N, % inhibition of NO3-N formation (Böhland), Colby", "conditions": "0.05% DMPP, 0.45% DMPSA", "excerpt": "The effect on NH4^+ retention and NH4^+ to NO3^− ratios in the soil after fertilization of ammonium sulfate with the addition of DMPP, DMPSA or a combination of DMPP and DMPSA was investigated in column trials simulating climatic conditions of spring time in central Europe. Soil Limburgerhof (pH(CaCl2) 6.8, texture: 73% sand; 24% silt, 3% clay) was filled dry into a glass column with an inner width of 4 cm. At the bottom 0.4 g cotton wool was placed above which a frit (Co. Robu, pore size 1) was placed above which 100 g of 2 mm sieved soil Limburgerhof was layered. The soil height in the column was about 7 cm. Before fertilization the soil was brought to about 60% of its water holding capacity (WHC) be adding 14.4 mL of deionized water. Per column 10 mg NH4—N as ammonium sulfate was fertilized or not (control) together or not with 0.05% DMPP (DMPP obtained from BASF SE), 0.45% DMPSA (DMPSA used as free acid obtained from BASF SE) and 0.05% DMPP plus 0.45% DMPSA (% of nitrification inhibitor w/w of NH4—N). Every treatment was replicated three times.\nAfter fertilization, 50 mL demineralized water was carefully and slowly placed on top of each column which equals about 31 mm precipitation. After 24 h the eluate was collected and by sucking off the soil to bring it back to about 60% of its WHC. All handlings including soil preparation, fertilization and the temperature of the water for both wetting the soil and the artificial precipitation up to the collection of the eluate 24 h after fertilization was performed at 5° C.\nThereafter, the columns were incubated for 10 d or 20 d at constantly 15° C. in an incubator. After 7 d and 14 d, water was added by weight where needed to bring the soils uniformly to 60% WHC. After 10 d or 20 d, the soil was removed from the columns and extracted with 1% (w/w) K2SO4 solution by shaking for 2 h at room temperature. The filtrated extract was then analyzed for NH4^+ and NO3 colorimetrical by an autoanalyzer.\nTo calculate the inhibition of nitrate formation by the nitrification inhibitors during the incubation, the above-mentioned Böhland equation was used. To examine synergistic effects of the combination of DMPP+DMPSA the formula by Colby (Colby, S.R., “Calculating synergistic and antagonistic responses of herbicide Combinations”, Weeds, 15, pp. 20-22, 1967) was used. To determine background levels of NH4+ to NO3−, every treatment was also extracted immediately after fertilization and after leaching prior to the further incubation at 15° C. for 10 d or 20 d.", "key": {"[1]": {"conditions": "10 days of incubation at 15° C."}, "[2]": {"conditions": "20 days of incubation at 15° C."}}}
{"substance": "2-(3,4-dimethyl-1H-pyrazol-1-yl)succinic acid and/or 2-(4,5-dimethyl-1H-pyrazol-1-yl)succinic acid [DMPSA]", "values": [{"measurement": "During incubation: % inhibition of NO3—N formation by NI acc. to Böhland equation (1973) (MV)", "setting": "[1]", "result": 14.2, "unit": "%"}, {"measurement": "Net NI effect % NH4 from fertilized NH4 (MV)", "setting": "[1]", "result": 6.88, "unit": "%"}, {"measurement": "Ratio NH4—N/NO3—N (MV)", "setting": "[1]", "result": 0.53}, {"measurement": "Soil mg/100 g NH4—N (MV)", "setting": "[1]", "result": 3.16, "unit": "mg/100 g"}, {"measurement": "Soil mg/100 g NO3—N (MV)", "setting": "[1]", "result": 6.30, "unit": "mg/100 g"}, {"measurement": "During incubation: % inhibition of NO3—N formation by NI acc. to Böhland equation (1973) (MV)", "setting": "[2]", "result": 4.8, "unit": "%"}, {"measurement": "Net NI effect % NH4 from fertilized NH4 (MV)", "setting": "[2]", "result": 1.79, "unit": "%"}, {"measurement": "Ratio NH4—N/NO3—N (MV)", "setting": "[2]", "result": 0.02}, {"measurement": "Soil mg/100 g NH4—N (MV)", "setting": "[2]", "result": 0.19, "unit": "mg/100 g"}, {"measurement": "Soil mg/100 g NO3—N (MV)", "setting": "[2]", "result": 9.60, "unit": "mg/100 g"}]}
